According to US20110229411A1, “USE OF P2X7 PATHWAY FOR ASSESSING THE SENSITIVITY OF A SUBJECT TO A CANCER TREATMENT” (INSTITUT GUSTAVE ROUSSY, priority 2008, published 2011):

How the values were obtained:
[1] = test system: T cell priming for IFNγ production; assay: Priming assay: dying EG7 cells injected into the footpad, IFNγ secretion of restimulated popliteal lymph node cells; type: in vivo, mice
Method: 1.10^6 CT26, EG7, or B16F10 cells were either left untreated or treated with doxorubicin (20 μM) or oxaliplatin (5 μg/ml) for 24 h. Cells were then injected into the footpad of syngenic mice. In some experiments, 20 or 100 μg of IL-1Ra (Anakinra) or 250 ng of recombinant murine IL-1β (or 250 ng of IL-6 or 50 ng of IL-12) was injected along with dying tumor cells into the footpad of mice. Alternatively, DC were cocultured with EG7 cells for 2 hours, followed by the purification of CD11c^+ cells with anti-CD11c mAb coupled to magnetic beads (Miltenyi Biotec, Paris, France) and injection of these purified DC into the footpad. Five days later, gangliocytes from popliteal lymph nodes were harvested, seeded in 96 U-well plates (3.10^5 cells per well), and restimulated with 1 mg/ml OVA protein. Restimulation with MCA205 or CT26 cells was performed using 3×10^4 tumor cells killed by 5 min heating at 42° C. followed by 1 cycle of freezing/thawing in liquid nitrogen. For B16F10, restimulation was achieved using gp100 peptide as previously described (Overwijk et al., 1998). As a positive control of T cell priming, mice were injected with OVA protein (1 mg) (or gp100 for B16F10) and the association of CpG (10 μg) and Poly I:C (5 μg). For CT26 priming experiments, cell lysate plus LPS (250 ng) was used as a positive control. Supernatants were harvested 72 hours later, and IFNγ secretion was assessed by ELISA. Alternatively, cells were stimulated with PMA (10 ng/ml) and ionomycin (1 μg/ml) for 1 h, followed by the addition of brefeldin A (10 μg/ml for 6 h at 37° C.) (Apetoh et al., 2007), surface staining with Abs specific for CD3, CD4 or CD8, fixation and permeabilization (Cytofix/cytoperm kit) and then labeled with antibodies specific for IFNγ. Immunofluorescence was analyzed on a LSRII flow cytometer (BD Biosciences) with FACSDiva software.

[2] = test system: CT26 cells; assay: Anti-cancer vaccination with dying CT26 cells and rechallenge with live tumor cells; type: in vivo, mice; settings: doxorubicin-treated CT26, rechallenge with live cells seven days later
Method: (§1) FIG. 3: Identification of AT P release as a limiting factor of anti-cancer vaccination by dying CT 26 cells. FIG. 3a-b Idem as in FIGS. 1a and b, but using the mouse colon cancer CT26 exposed to doxorubicin. Data of one representative experiment out of three are depicted. FIG. 3. c-d. […] Mice were immunized with PBS or dying CT26 tumor cells. Dying CT26 were first treated with doxorubicin for 24 hours and were then incubated with antimycin A/deoxyglucose (A/D) for 20 min. Cells were washed after A/D exposure and before subcutaneous inoculation (c). Alternatively, dying CT26 were inoculated alone or together with oxiATP (d). Seven days later, mice (15 per group in a total of 3 distinct experiments) were inoculated with live syngeneic tumor cells and tumor growth was monitored. * p<0.05.
Anti cancer vaccination was assessed using a previously described setting (Casares et al., 2005; Obeid et al., 2007). CT26 cells were cultured with either PBS or 20 μM doxorubicin, and MCA205 with either PBS or 1 μM mitoxantrone for 24 h. All these treatments led to ˜50% of Annexin V^+ DAPI^+ cells, as assessed by FACS analysis at 24 hours. After careful washes, cells were resuspended in sterile PBS. […] Tumor growth was then monitored weekly.

[3] = test system: CT26 colon cancer cells; assay: ATP assays on doxorubicin-treated tumor cells; type: cell-based, mouse; settings: CT26, doxorubicin 20 μM
Method: as §1
Plates were read in a Fluostar luminometer (BMG Labtech).

[4] = test system: CT26 cells; assay: Cell death induction for vaccination, FACS analysis of Annexin V+ DAPI+ cells; type: cell-based, mouse; settings: CT26, 20 μM doxorubicin, 24 hours
Method: Anti cancer vaccination was assessed using a previously described setting (Casares et al., 2005; Obeid et al., 2007). CT26 cells were cultured with either PBS or 20 μM doxorubicin, and MCA205 with either PBS or 1 μM mitoxantrone for 24 h. All these treatments led to ˜50% of Annexin V^+ DAPI^+ cells, as assessed by FACS analysis at 24 hours. After careful washes, cells were resuspended in sterile PBS. CT26 cells were incubated in the presence or in the absence of antimycin A and deoxyglucose (2 μg/ml and 30 mM, respectively) for 20 min, or in the presence or in the absence of Oxi-ATP ([…]). After 3 washes, 3×10^6 dying CT26 cells (or 3×10^5 MCA205 cells) were injected subcutaneously into the left flank of mice. In some experiments, 100 μg of IL-1Ra (Anakinra) was injected along with the dying cells. Seven days later, mice were rechallenged into the right flank with 5×10^5 live CT26 cells (or, alternatively, 3.10^4 live MCA205 cells). Tumor growth was then monitored weekly.

[5] = test system: T cell priming for IFNγ production; assay: Priming assay with dying CT26 cells, restimulation with CT26 or MCA205 tumor lysate, IFNγ production; type: in vivo; settings: IL-1Ra 100 μg co-inoculated, WT mice
Method: FIG. 14: The immunogenicity of cell death requires active IL-1β. Mice were immunized with PBS or dying CT26 tumor cells treated with doxorubicin or freeze thawing and LPS. Dying CT26 were co-inoculated together with IL-1Ra (100 μg) into the […] of WT mice. Five days later, mice (n=5 mice/group) were sacrificed to harvest popliteal lymph nodes for in vitro restimulation with CT26 or MCA205 tumor lysate and assessment of IFNγ production. *p<0.05.
1.10^6 CT26, EG7, or B16F10 cells were either left untreated or treated with doxorubicin (20 μM) or oxaliplatin (5 μg/ml) for 24 h. Cells were then injected into the footpad of syngenic mice. In some experiments, 20 or 100 μg of IL-1Ra (Anakinra) or 250 ng of recombinant murine IL-1β (or 250 ng of IL-6 or 50 ng of IL-12) was injected along with dying tumor cells into the footpad of mice. Alternatively, DC were cocultured with EG7 cells for 2 hours, followed by the purification of CD11c^+ cells with anti-CD11c mAb coupled to magnetic beads (Miltenyi Biotec, Paris, France) and injection of these purified DC into the footpad. […] Supernatants were harvested 72 hours later, and IFNγ secretion was assessed by ELISA. […] Immunofluorescence was analyzed on a LSRII flow cytometer (BD Biosciences) with FACSDiva software.

[6] = test system: EL4 thymoma tumors; assay: Chemotherapy of EL4 tumors established in mice; type: in vivo; settings: co-treatment, data not shown
Method: (§2) FIG. 17. The anti-cancer activity of oxaliplatin depends on P2X7 and the NALP3 inflammasome. FIG. 17a,b,c. Therapeutic efficacy of oxaliplatin on established tumors depends on the integrity of the immune system on the P2X7/NALP3/casp-1 axis. EL4 thymoma tumors were established in syngenic mice bearing the indicated genotypes (a-c) or injected with anti-CD8 antibody (a). When the tumor reached 70-90mm^2 in size, mice were either left untreated or were treated with oxaliplatin. Each treatment group included 5-6 mice (X±SEM), and each experiment was repeated three times with similar results. * p<0.05. d. Caspase 1 is required for the immune response promoted by oxaliplatin chemotherapy. EG7 tumors established in the thigh were treated with one systemic injection of oxaliplatin. Inguinal lymph node cells were harvested 5 days later, and the gangliocytes were restimulated in vitro. IFNγ secretion was assessed by ELISA. Results (means of triplicates ±SEM, n=3) are representative of one typical experiment out of three. ^*P<0.01. FIG. 17d. The efficacy of anthracyclines against established colon cancer is dependent on IL-1β. CT26 tumors established for 10 days in WT mice were treated with one local injection of doxorubicin in the absence or presence of neutralizing anti-IL-1β Ab (n=10/group, *p<0.05). FIG. 17e. A single-nucleotide polymorphism (SNP) in P2X7 (rs3751143) affects the long-term efficacy of conventional anti-cancer therapy in breast cancer patients. Comparative Kaplan-Meier estimates of time to metastasis in two groups of patients bearing the normal (Glu496Glu) or loss-of-function (Glu496Ala) P2X7 alleles. The time to metastatic progression was analyzed in 225 women with non-metastatic breast cancer who received adjuvant chemotherapy with anthracylines.
Wild type or loss-of-function C57BL/6 mice were injected s.c. with 10^6 EL4 cells into the right flank. Alternatively, wild-type BALB/c mice were injected with 5.10^5 CT26 cells into the right flank. Mice were then randomly assigned to treatment groups of 4-6 mice each. The tumor surface was monitored using a caliper. When tumor size reached 70-90 mm^2 for EL4 (9-12 days post-injection) or 60-80 mm^2 for CT26 (8-10 days post-injection), mice received chemotherapy (Apetoh et al., 2007). Mice bearing EL4 tumors were injected with oxaliplatin (5 mg/kg i.p), while mice bearing CT26 tumors were injected with doxorubicin (50 μl, 4 mM i.t). In some experiments, CT26 tumor-bearing mice received two injections (on day 0 and day 2 after the commencement of chemotherapeutic treatment) of IL-1Ra (McIntyre et al., 1991) (100 μg), anti-IL-1 antibody (100 μg) or hamster serum as a control.

[7] = test system: CT26 tumors; assay: Chemotherapy of CT26 tumors established in mice; type: in vivo; settings: doxorubicin i.t.; 100 μg on day 0 and day 2, WT mice
Method: as §2, with “The efficacy of anthracyclines against established colon cancer is dependent on IL-1β. CT26 tumors established for 10 days in WT mice were treated with one local injection of doxorubicin in the absence or presence of neutralizing anti-IL-1β Ab (n=10/group, *p<0.05). FIG. 17e. A single-nucleotide polymorphism (SNP) in P2X7 (rs3751143) affects the long-term efficacy of conventional anti-cancer therapy in breast cancer patients. Comparative Kaplan-Meier estimates of time to metastasis in two groups of patients bearing the normal (Glu496Glu) or loss-of-function (Glu496Ala) P2X7 alleles.” left out
Wild type or loss-of-function C57BL/6 mice were injected s.c. with 10^6 EL4 cells into the right flank. […] The tumor surface was monitored using a caliper. […]

[8] = test system: OT-1 CD8+ T cells; assay: In vitro stimulation of OT-1 cells by BM-DC loaded with oxaliplatin-treated EG7; type: cell-based, mouse; settings: rIL-1β 100 ng/ml or IL-12 10 ng/ml added to cocultures
Method: (§3) FIG. 15. IL-1β-dependent CTL priming by dying tumor cells in vitro and in vivo. FIG. 15a. MyD88 is required at the level of the host but not that of the APC. DC from WT mice were first loaded with antigen (OVA holoprotein with C/P adjuvant, live or oxaliplatin-treated EG7 cells) and then injected into the footpad of into WT or MyD88^−/− recipients (n=6 mice/group). Five days later, the local immune response was measured as in FIG. 2d,e. Results of one typical experiment out of three are depicted. FIG. 15b. Casp-1 and IL-1β-dependent OT-I priming in vitro. The differentiation of IFNγ producing CD8^+ OT-1 cells was induced by incubating naïve OVA-specific TCR transgenic OT-1 lymphocytes with syngeneic BM-DC (derived from WT or Casp-1^−/− mice) that were loaded with oxaliplatin-treated EG7 for 2 days in vitro. […] Exogenous addition of rIL-1β (100 ng/ml) or IL-12 (10 ng/ml) to cocultures of Casp-1^−/− DC loaded with dying tumor cells and incubated with OT1 restored T cell priming. […] FIG. 15c. Specific and direct polarizing effects of IL-1β on T lymphocytes in vitro. Purified CD3^+ CD8^+ T cells derived from naïve WT mice were stimulated with anti-CD3 and anti-CD28 mAb for 5 days in the presence of the indicated cytokines (10 ng/ml for IL-12p70, 100 ng/ml for IL-1β, IL-6 and TNFα) -and IFNγ production was measured as in FIG. 3b. FIG. 15d. […]

[9] = test system: CD3+ CD8+ T cells; assay: In vitro stimulation of CD8+ T-cells with anti-CD3 and anti-CD28 mAb plus cytokines; type: cell-based, mouse; settings: CD3 plus CD28 cross-linking; 10 ng/ml IL-12p70, 100 ng/ml IL-1β, IL-6, TNFα
Method: as §3

## Nc1ncnc2c1ncn2[C@@H](C=O)O[C@@H](C=O)COP(=O)(O)OP(=O)(O)OP(=O)(O)O [oxiATP, 2′,3′-dialdehyde derivative of ATP]
[1]; OVA with PolyI:C+CpG in presence of oxiATP
  T cell priming triggered by OVA protein plus adjuvant: did not affect T cell priming
[1]; cells admixed with oxiATP, footpad, C57Bl/6 mice
  T cell priming by oxaliplatin-treated EG7 cells: abolished T cell priming
[2]
  efficacy of vaccination with dying tumor cells: prevent the efficacy of vaccination

## COc1cccc2c1C(=O)c1c(O)c3c(c(O)c1C2=O)C[C@@](O)(C(=O)CO)C[C@@H]3O[C@H]1C[C@H](N)[C@H](O)[C@H](C)O1 [doxorubicin]
[3]
  release of ATP: released ATP
[4]
  Annexin V+ DAPI+ cells: ~50%

## IL-1Ra: recombinant IL-1 receptor antagonist, Kineret Anakinra (Amgen)
[1]; IL-1Ra co-injected into the footpad
  T cell priming in vivo by oxaliplatin-treated EG7 cells (IFNγ after restimulation with OVA): failed to prime T cells in vivo
[1]; IL-1Ra co-injected, restimulation with PMA-ionomycin, flow cytometry
  cytoplasmic IFNγ staining of CD3+CD8+ T lymphocytes: failed to stain positively for cytoplasmic IFNγ
[5]
  tumor-specific IFNγ response of T cells primed by dying CT26 cells: abolished
[6]
  effect on the response of EL4 tumors to oxaliplatin: blunted the response
[7]
  effect on the response of CT26 tumors to anthracyclines: blunted the response

B1: IL-1β: recombinant mouse IL-1β from R&D Systems (protein)
chain: VPIRQLHYRLRDEQQKSLVLSDPYELKALHLNGQNINQQVIFSMSFVQGEPSNDKIPVALGLKGKNLYLSCVMKDGTPTLQLESVDPKQYPKKKMEKRFVFNKIEVKSKVEFESAEFPNWYISTSQAEHKPVFLGNNSGQDIIDFTMESVSS
[1]; cytokine co-injected with oxaliplatin-treated EG7: rIL-1β 250 ng, rIL-12 50 ng, rIL-6 250 ng per footpad
  T cell priming in Nalp3−/− or Casp1−/− mice: restored deficient T cell priming
[8]
  priming capacity of Casp-1−/− DC for OT-1 cells (IFNγ): restored the priming capacity
[9]
  IFNγ production by naive CD3+CD8+ splenic T cells: failed to produce IFNγ, unless IL-113
